The conditions of series [1]: in words; cited from earlier work.
A further series has as its system rumen fluid. Nature of the series: In vitro incubation of rumen fluid: digestibility, fermentation characteristics, gas and methane production, VFA. In kind it is cell-based, Hanwoo cows. Particulars: 0.2 mmol/L. The method, then: (§1) Rumen fluid was sampled from Hanwoo cows at the Nonghyup Research Farm in Anseong, Gyeonggi Province, and mixed with buffer at a ratio of 1:2 within 1 hour of sampling. Oat hay was used as the forage, and pelleted feed for the middle fattening period was used as the concentrate. After grinding, the forage and concentrate were mixed at a ratio of 1:1 after passing through a 1-mm screen. 50 ml of culture medium was dispensed into 0.5 g of dry matter, and the control group and the five experimental groups (acrylamide, chloroacetamide, glycolamide, iodoacetamide, and propionamide) were each incubated for 24 hours with five replicates. The control group was incubated in 50 mL of culture medium, whereas the experimental groups were incubated in 49.9 mL of culture medium plus 0.1 mL of deionized water. For the five experimental groups, the supplementation level of each amide was set to 0.2 mmol/L (final concentration), and the amounts added were 1.4216 mg/g for acrylamide, 1.8702 mg/g for 2-chloroacetamide, 1.4618 mg/g for propionamide, 1.5014 mg/g for glycolamide, and 3.6992 mg/g for iodoacetamide.
(§2) Gas pressure was measured at 0, 3, 6, 12, and 24 hours (gas collection intervals), and the gas released during each measurement was collected to determine the total gas production and methane production up to the final 24 hours. After completing the 24-hour incubation, pH, ammonia nitrogen (NH3—N), dry matter digestibility, neutral detergent fiber digestibility, volatile fatty acids (VFA), and the microbiome were analyzed.
(§3) Data conforming to normal distribution and homogeneity of variance were analyzed using the GLIMMIX procedure of SAS and Tukey's HSD test. […] Differences in the overall bacteriota and their functional profiles were analyzed using PERMANOVA. Differentially abundant microbial biomarkers were identified using multivariable association analysis with the MaAsLin2 R package, based on relatively abundant bacterial taxa and predicted microbial functions.

A further series deals with Total bacteria. Nature of the series: qPCR absolute quantification of total bacteria after in vitro rumen incubation. In kind it is cell-based, rumen fluid of Hanwoo cows. Particulars: 0.2 mmol/L, 24 h. The method, then:
as §1, §2
(§4) Metagenomic DNA was extracted using the RBB+C method, followed by qPCR analysis and microbiome analysis. Microbial functions were predicted using PICRUSt2. Taxonomic drivers of differentially enriched MetaCyc pathways were identified using Fish Taco (Functional Shifts' Taxonomic Contributor).
as §3
(§5) For the control group and the five experimental groups (acrylamide, chloroacetamide, glycolamide, iodoacetamide, and propionamide), the effects of the amide compounds on the absolute quantification of total bacteria, methanogens, protozoa, and specific cellulolytic bacterial species (Fibrobacter succinogenes, Ruminococcus flavefaciens, Ruminococcus albus, and Prevotella ruminicola) are presented in Table 3 below as quantitative real-time PCR data.
(In general: Real-time PCR tracks product formation cycle by cycle.)

The test system of a further series is Total methanogen. The series can be described thus: qPCR absolute quantification of methanogens after in vitro rumen incubation. It is filed as cell-based, rumen fluid of Hanwoo cows. As to conditions: 0.2 mmol/L, 24 h. Here is the method: as §1, §2, §4, §3, §5
A further series has as its system Total protozoa. The series can be described thus: qPCR absolute quantification of protozoa after in vitro rumen incubation. Particulars: 0.2 mmol/L, 24 h. In kind it is cell-based, rumen fluid of Hanwoo cows. Here is the method:
as §1, §2, §4, §3, §5

In another series the test system is Fibrobacter succinogenes. Nature of the series: qPCR absolute quantification of Fibrobacter succinogenes after in vitro rumen incubation. It is filed as cell-based. As to conditions: 0.2 mmol/L, 24 h. Here is the method: as §1, §2, §4, §3, §5
Series [2] has as its system Ruminococcus flavefaciens. The series can be described thus: qPCR absolute quantification of Ruminococcus flavefaciens after in vitro rumen incubation. It is filed as cell-based. Particulars: 0.2 mmol/L, 24 h. The method, then: as §1, §2, §4, §3, §5
For another series, the system named is Ruminococcus albus. Nature of the series: qPCR absolute quantification of Ruminococcus albus after in vitro rumen incubation. It is filed as cell-based. As to conditions: 0.2 mmol/L, 24 h. The method, then:
as §1, §2, §4, §3, §5

A further series has as its system Prevotella ruminicola. Nature of the series: qPCR absolute quantification of Prevotella ruminicola after in vitro rumen incubation. In kind it is cell-based. As to conditions: 0.2 mmol/L, 24 h. Here is the method:
as §1, §2, §4, §3, §5

Another series has as its system rumen microbiome. Nature of the series: Alpha-diversity measurements of the rumen microbiome. In kind it is cell-based, rumen fluid of Hanwoo cows. As to conditions: 0.2 mmol/L, 24 h. Here is the method: as §1, §2, §4, §3
The alpha-diversity measurements for the control group and the five experimental groups (acrylamide, chloroacetamide, glycolamide, iodoacetamide, and propionamide) are presented in Table 4 below.

Another series deals with rumen microbiota. The series can be described thus: Differentially abundant genera and species in response to haloacetamide treatment; taxonomic drivers. Particulars: in words. In kind it is cell-based, rumen fluid of Hanwoo cows. The method, then: Rumen fluid was sampled from Hanwoo cows at the Nonghyup Research Farm in Anseong, Gyeonggi Province, and mixed with buffer at a ratio of 1:2 within 1 hour of sampling. Oat hay was used as the forage, and pelleted feed for the middle fattening period was used as the concentrate. After grinding, the forage and concentrate were mixed at a ratio of 1:1 after passing through a 1-mm screen. 50 ml of culture medium was dispensed into 0.5 g of dry matter, and the control group and the five experimental groups (acrylamide, chloroacetamide, glycolamide, iodoacetamide, and propionamide) were each incubated for 24 hours with five replicates. […]
Gas pressure was measured at 0, 3, 6, 12, and 24 hours (gas collection intervals), and the gas released during each measurement was collected to determine the total gas production and methane production up to the final 24 hours. After completing the 24-hour incubation, pH, ammonia nitrogen (NH3—N), dry matter digestibility, neutral detergent fiber digestibility, volatile fatty acids (VFA), and the microbiome were analyzed. […]
Data conforming to normal distribution and homogeneity of variance were analyzed using the GLIMMIX procedure of SAS and Tukey's HSD test. […] Differences in the overall bacteriota and their functional profiles were analyzed using PERMANOVA. […]

As to `O=[N+]([O-])OCCCO` [3-NOP, 3-nitrooxypropanol], the toxicity / safety entry in series [1] is “issues related to residues in the animal body and safety”.
Turning to `NC(=O)CI` [IA, iodoacetamide], in the series with rumen fluid (24 h), the “A:P ratio (acetate:propionate ratio)” value is 1.89^C, the “DMD (dry matter digestibility)” value is on record as 76.18^B %, the “NDFD (neutral detergent fiber digestibility)” value was 47.83^A % and the “NH3—N (ammonia nitrogen)” value is given as 13.16^B mg/dL. In the series on rumen fluid (24 h), this molecule came in with a pH of 6.19. In the series with rumen fluid (24 h, VFA composition), the Acetate is recorded as 52.09^C %, the Butyrate was 16.51^A %, the Isobutyrate worked out at 0.76% and the Isovalerate is 1.02^C %. Moreover, in the series on rumen fluid (24 h, VFA composition), the Propionate is reported as 27.56^A % and the Valerate is listed as 2.06^A %. Besides, in the series with rumen fluid (24 h, concentration), the Acetate is 29.92^C mM, the Butyrate is reported as 9.45^AB mM, the Isobutyrate was 0.43^C mM and the Isovalerate was 0.58^B mM. Also, in the series on rumen fluid (24 h, concentration), the Propionate is listed as 15.80^A mM, the “Total VFA (total volatile fatty acids)” value is reported as 59.25^B mM and the Valerate is 1.18 mM. Also, in the series with rumen fluid (24 h, in words, from Table 1), the methane-reducing effects entry is recorded as “excellent methane-reducing effects”. Also, in the series with rumen fluid (up to 24 h), the “CH4 (methane production per gram of degraded dry matter)” value is listed as 0.60^D mL/g dDM, the “CH4 (methane production)” value is 0.23^D mL and the “TGP (total gas production)” value was 129.37^B mL. In addition, the “Total bacteria (absolute quantification, qPCR)” value with Total bacteria is on record as 10.38^A. Further, the “Total methanogen (absolute quantification, qPCR)” value with Total methanogen is 7.74^B. In the series on Total protozoa, the “Total protozoa (absolute quantification, qPCR)” value is 9.68. Moreover, in the series on Fibrobacter succinogenes, the “Fibrobacter succinogenes (absolute quantification, qPCR)” value is on record as 9.79^A. Further, in [2], the “Ruminococcus flavefaciens (absolute quantification, qPCR)” value is 8.51^A. Also, the “Ruminococcus albus (absolute quantification, qPCR)” value in the series with Ruminococcus albus was 7.83^AB. The “Prevotella ruminicola (absolute quantification, qPCR)” value in the series with Prevotella ruminicola is 9.72^A. For the same molecule, in the series with rumen microbiome, the Chao1 is reported as 525.3^A, the Evenness is recorded as 0.8895^AB, the Observed features is 520.6^A and the Shannon is 8.0215^A. The Simpson in the series with rumen microbiome is given as 0.9925^A. Further, in the series with rumen microbiota, the differentially abundant bacteria result was “increases bacteria belonging to the genera Fibrobacter, Pseudobutyrivibrio, and Treponema, and the species Ruminococcus flavefaciens”.
For the molecule `BrC(Br)Br` [bromoform], the toxicity / safety entry in series [1] is on record as “carcinogenic substance”.

These data come from patent publication US20260306429A1, “COMPOSITION FOR REDUCING METHANE PRODUCTION AND IMPROVING NITROGEN UTILIZATION EFFICIENCY OF RUMINANT ANIMALS COMPRISING HALOACETAMIDE AS ACTIVE INGREDIENT” (CHUNGANG UNIVERSITY INDUSTRY ACADEMIC COOPERATION FOUNDATION, priority 2024, published 2026).
